Assay type in all cases: cell-based
One test addresses T1, human GPR120 (Homo sapiens, UniProt Q5NUL3).
T1 sequence (Q5NUL3 1-361): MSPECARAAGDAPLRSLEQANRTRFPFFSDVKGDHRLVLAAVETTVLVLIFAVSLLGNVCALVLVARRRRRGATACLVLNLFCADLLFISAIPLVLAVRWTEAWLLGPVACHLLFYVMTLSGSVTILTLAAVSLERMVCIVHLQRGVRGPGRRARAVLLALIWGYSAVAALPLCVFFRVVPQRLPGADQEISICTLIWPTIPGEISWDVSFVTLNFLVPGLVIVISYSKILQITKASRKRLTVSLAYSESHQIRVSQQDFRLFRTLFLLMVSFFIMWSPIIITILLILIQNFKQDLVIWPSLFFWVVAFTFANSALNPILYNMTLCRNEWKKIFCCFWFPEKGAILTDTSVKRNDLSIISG
Kind of test: GPR120 β-arrestin 2 recruitment BRET, agonist mode. The settings on record: HEK293 cells, read-out: GPR120 (agonist mode) EC50 β-arr2. An excerpt:
(§1) Plasmids: The cDNA clones for human GPR40 and GPR84 receptors, human β-arrestin 2, Gαi2, Gβ1, and Gγ2 were obtained from the cDNA Resource Center (www.cdna.org). A plasmid encoding the human GPR120-L (long isoform) cDNA was obtained from R&D Systems. GPR120-S (short isoform) was generated by replacing the BglII-BsgI fragment from GPR120-L by a gBlock gene fragment (Integrated DNA Technologies, IA) lacking the DNA sequence corresponding to the extra 16 amino acids found in the third intracellular loop of the long form. GFP10 (F64L, S147P, S202F and H231L variant of Aequorea victoria GFP) gBlocks gene fragments (Integrated DNA Technologies) and linker were inserted in frame at the N-terminus of human Gγ2, or at the C-terminus of GPR40 and GPR120. Rluc8 (A55T, C124A, S130A, K136R, A143M, M185V, M253L, and S287L variant of the Renilla luciferase) gBlocks gene fragment (Integrated DNA Technologies) was inserted with linkers in between residues 91 and 92 of Gα2 or at the N-terminus of β-arrestin 2.
(§2) BRET measurements: a Gαi bioluminescence resonance energy transfer (BRET) biosensor was used to directly monitor GPR84-mediated activation of Gαi. The Gαi biosensor consists of a Rluc8-tagged Gαi2 subunit, a GFP10-tagged Gγ2 subunit, and an untagged Gβ1. Agonist stimulation and ensuing GPR84 activation triggers a physical separation between the RLuc8-Gαi donor and the GFP10-Gγ2 acceptor, resulting in a decrease in BRET signal whose amplitude is correlated to ligand efficacy. A BRET-based assay that allows the monitoring of Rluc8-tagged β-arrestin 2 recruitment to GFP10-tagged GPR40 or GFP10-tagged GPR120 was used to assess GPR40 or GPR120 activation. Transiently transfected HEK293 cells were seeded in 96-well white clear bottom Costar microplates (Fisher Scientific) coated with poly-D-lysine (Sigma-Aldrich) and left in culture for 24 hours. Cells were washed once with Tyrode's buffer (140 mmol/L NaCl, 1 mmol/L CaCl2, 2.7 mmol/L KCl, 0.49 mmol/L MgCl2, 0.37 mmol/L NaH2PO4, 5.6 mmol/L glucose, 12 mmol/L NaHCO3, and 25 mmol/L HEPES, pH 7.5) and the Rluc8 substrate coelenterazine 400A (Prolume, Lakeside, Ariz.) added at a final concentration of 5 μmol/L in Tyrode's buffer. Ligands were incubated with cells at room temperature for 5 minutes (G protein) or 25 minutes (β-arrestin) before reading BRET signal. In GPR84 antagonist mode, cells were treated with 125 μmol/L of the GPR84 agonist sodium decanoate in combination with test compounds. BRET readings were collected using an Infinite M1000 microplate reader (Tecan, Morrisville, N.C.). BRET^2 readings between Rluc8 and GFP10 were collected by sequential integration of the signals detected in the 370 to 450 nm (Rluc8) and 510 to 540 nm (GFP10) windows. The BRET signal was calculated as the ratio of light emitted by acceptor (GFP10) over the light emitted by donor (Rluc8). The values were corrected to net BRET by subtracting the background BRET signal obtained in cells transfected with Rluc8 constructs alone. Ligand-promoted net BRET values were calculated by subtracting vehicle-induced net BRET from ligand-induced net BRET.

For a further test, the target named is T2, human GPR40 (Homo sapiens, UniProt O14842).
T2 construct: host or cells: HEK293 (transient)
T2 sequence (O14842 whole entry): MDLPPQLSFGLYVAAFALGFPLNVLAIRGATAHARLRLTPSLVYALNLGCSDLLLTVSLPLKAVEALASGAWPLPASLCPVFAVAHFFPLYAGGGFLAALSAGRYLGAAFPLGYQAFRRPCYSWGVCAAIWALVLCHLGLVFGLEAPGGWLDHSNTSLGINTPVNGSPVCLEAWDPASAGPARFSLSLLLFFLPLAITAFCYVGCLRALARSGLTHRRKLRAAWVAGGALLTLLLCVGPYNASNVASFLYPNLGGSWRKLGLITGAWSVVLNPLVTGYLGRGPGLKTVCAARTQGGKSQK
Nature of the test: GPR40 β-arrestin 2 recruitment BRET, agonist mode. The settings on record: HEK293 cells, read-out: GPR40 (agonist mode) EC50 β-arr2.
Description: as §1, §2

Test [1] has as its target T3, human GPR84 (Homo sapiens, UniProt Q9NQS5).
T3 construct: host or cells: HEK293 (transient)
Nature of the test: GPR84 Gαi BRET biosensor, agonist activity. The settings on record: HEK293 cells.
Description: as §1, §2

Test [2] concerns the target T3, human GPR84. Kind of test: GPR84 Gαi BRET biosensor, antagonist mode (125 μmol/L sodium decanoate). The note with it: HEK293 cells, with 125 μmol/L sodium decanoate.
Description: as §1, §2

T3 sequence (Q9NQS5 whole entry): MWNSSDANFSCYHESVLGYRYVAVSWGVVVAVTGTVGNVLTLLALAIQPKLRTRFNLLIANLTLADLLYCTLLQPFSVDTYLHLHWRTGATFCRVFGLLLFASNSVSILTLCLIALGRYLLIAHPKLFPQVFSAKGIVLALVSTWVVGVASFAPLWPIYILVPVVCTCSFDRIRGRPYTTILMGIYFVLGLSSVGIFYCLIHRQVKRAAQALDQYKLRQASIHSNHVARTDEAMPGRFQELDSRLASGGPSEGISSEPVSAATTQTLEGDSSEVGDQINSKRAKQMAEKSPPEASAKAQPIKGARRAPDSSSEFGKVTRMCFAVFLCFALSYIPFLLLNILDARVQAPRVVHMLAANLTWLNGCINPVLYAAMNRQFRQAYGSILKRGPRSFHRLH

Consider `CCCCCCC1C(CC(=O)O)C1(C)C` (stereo not shown) [drawing 302], for which the EC50 on human GPR120 and at human GPR40 was greater than 63 µM in each case.

As for `CCCCCC1CC(CC(=O)O)C1` (stereo not shown), the concentration giving a half-maximal response (EC50) was greater than 500 µM at human GPR120, 35 µM on human GPR84 [1] and 87 µM on human GPR40.

For `CCCCCCC1C(CCC(=O)O)C1(C)C` (stereo not shown), the EC50 on human GPR120 is greater than 31 µM; on human GPR40 it was 10 µM. Moreover, the 50% inhibitory concentration (IC50) at human GPR84 [2] came out at 9 µM.

Turning to `CCCCCCC1C(CC(=O)O)C1(C)C` (stereo not shown) [drawing 311], the EC50 on human GPR120 was greater than 500 µM; at human GPR40 it was 174 µM. On human GPR84 [2], the IC50 is 468 µM.

Consider `CCCCCCC1C(CC(=O)O)C1(F)F` (stereo not shown), for which the EC50 on human GPR120 turned out to be 383 µM; at human GPR40 it was 126 µM. On human GPR84 [2], the IC50 was determined as 117 µM.

On to `CCCCCC1C(CCC(=O)O)C1(Br)Br` (stereo not shown), for which the values for the EC50 on human GPR120 and at human GPR40 were 45 µM and 16 µM, respectively. The IC50 on human GPR84 [2] stood at 20 µM.

As to `CCCC[C@H]1CC[C@H](CCC(=O)O)CC1`, the EC50 at human GPR120 is 22 µM; on human GPR40, 21 µM. Also, the IC50 on human GPR84 [2] worked out at 22 µM.

With `CCCCCCC1CC(C(=O)O)C1` (stereo not shown), the values for the EC50 on human GPR120, on human GPR84 [1] and at human GPR40 were 382 µM, 73 µM and 63.4 µM, respectively.

Turning to `CCCCCCC1C(CC(=O)O)C1(C)C` (stereo not shown) [drawing 299], the EC50 is greater than 125 µM on human GPR120 and 30 µM at human GPR40. In addition, the IC50 at human GPR84 [2] came to 56 µM.

As for `CCCCCCC1CC1C(=O)C(=O)O` (stereo not shown), the results for the EC50 on human GPR120, at human GPR84 [1] and on human GPR40 were greater than 500 µM, 36.9 µM and 321 µM, respectively.

Consider `CCCCCC1CC(=CC(=O)O)C1` (stereo not shown), for which the figures for the EC50 on human GPR120, at human GPR84 [1] and on human GPR40 were 88 µM, less than 16 µM and 70 µM, respectively.

In the case of `CCCCCC1CC/C1=C/C(=O)O` (stereo not shown), the EC50 at human GPR120 is 307 µM; at human GPR40, 211 µM. The half-inhibitory concentration (IC50) on human GPR84 [2] stood at 180 µM.

For the molecule `CCCCCC1CCC1CC(=O)O` (stereo not shown), the EC50 on human GPR120 was greater than 500 µM; at human GPR40, 83 µM. Besides, at human GPR84 [2], the 50% inhibitory concentration (IC50) amounted to 173 µM.

With `CCCCCCCC1CC1C(=O)O` (stereo not shown), the EC50 is greater than 250 µM on human GPR120, 13 µM on human GPR84 [1] and 49 µM on human GPR40.

`CCCCCC1C(CCC(=O)O)C1(C)C` (stereo not shown): the EC50 is greater than 63 µM on human GPR120 and 27 µM on human GPR40. Further, on human GPR84 [2], the IC50 was greater than 63 µM.

With `CC1(C)CC1CCCCCC1CC1C(=O)O` (stereo not shown), the half-maximal effective concentration (EC50) at human GPR120 worked out at 35 µM; on human GPR40, 14.3 µM.

Take `CCCCCC=C1CC(C(=O)O)C1` (stereo not shown): the EC50 on human GPR120 was greater than 500 µM; on human GPR40, 252 µM. In addition, the IC50 on human GPR84 [2] amounted to 131 µM.

Regarding `CC1(C)CC1CCCCCCCC(=O)O` (stereo not shown), the results for the EC50 on human GPR120, on human GPR84 [1] and on human GPR40 were 77 µM, 5 µM and 11 µM, respectively.

On to `CCCCCC1CC(CC(=O)O)C1(C)C` (stereo not shown), for which the results for the EC50 at human GPR120 and at human GPR40 were 90 µM and 15 µM, respectively. The IC50 at human GPR84 [2] came out at 49 µM.

With `CCCCCC1C(CCC(=O)O)C1(F)F` (stereo not shown), the EC50 was greater than 500 µM at human GPR120, 79 µM on human GPR84 [1] and 133 µM at human GPR40.

On to `[2H]C1([2H])C(CCCCCCC)C1CC(=O)[O-].[Na+]` (stereo not shown), for which the concentration for a half-maximal effect (EC50) at human GPR120 worked out at 299 µM; on human GPR84 [1], 23 µM; at human GPR40 it was 149 µM.

For the molecule `CCCCCCCC1(CC(=O)O)CC1`, the figures for the EC50 at human GPR120 and on human GPR40 were no less than 500 µM and 122 µM, respectively. The IC50 on human GPR84 [2] is greater than 500 µM.

Consider `CCCCC[C@H]1CCC[C@@H](CC(=O)O)C1`, for which the half-maximal effective concentration (EC50) at human GPR120 was 377 µM; on human GPR40, 12 µM. In addition, on human GPR84 [2], the IC50 was determined as 56 µM.

Turning to `CCCCCCCC1(CC(=O)O)CCC1`, the EC50 on human GPR120 is greater than 63 µM; on human GPR40, 21 µM. At human GPR84 [2], the IC50 was greater than 63 µM.

For `CC1(C)CC1CCCCC/C=C/C(=O)O` (stereo not shown), the EC50 at human GPR120 was found to be 61 µM; at human GPR84 [1] it was 6 µM; on human GPR40, 22 µM.

As to `CCCCCCC1CC1CC(=O)O` (stereo not shown), the EC50 was 272 µM on human GPR120, less than 16 µM at human GPR84 [1] and 170 µM on human GPR40.

With `CCCCCCCCC1(C(=O)O)CC1`, the EC50 at human GPR120 came out at 245 µM; at human GPR40, 164 µM. Moreover, at human GPR84 [2], the IC50 is 115 µM.

For the molecule `CCCCCCC1OC1CC(=O)O` (stereo not shown), the EC50 at human GPR120 is greater than 500 µM; at human GPR84 [1], 114 µM; on human GPR40 it was greater than 500 µM.
